Consider one molecule from paper PMC3368905, “Inhibition of Ion Channels and Heart Beat in Drosophila by Selective COX-2 Inhibitor SC-791” (PLoS ONE, 2012).

Each structure is given as a SMILES string.

For the experiment, the target named is T1, Shab channel (IKS, delayed rectifier, Drosophila Kv2) (Drosophila melanogaster, UniProt P17970).
T1 construct: native channel in larval body-wall muscles (fiber 12)
T1 sequence (P17970 1-1015): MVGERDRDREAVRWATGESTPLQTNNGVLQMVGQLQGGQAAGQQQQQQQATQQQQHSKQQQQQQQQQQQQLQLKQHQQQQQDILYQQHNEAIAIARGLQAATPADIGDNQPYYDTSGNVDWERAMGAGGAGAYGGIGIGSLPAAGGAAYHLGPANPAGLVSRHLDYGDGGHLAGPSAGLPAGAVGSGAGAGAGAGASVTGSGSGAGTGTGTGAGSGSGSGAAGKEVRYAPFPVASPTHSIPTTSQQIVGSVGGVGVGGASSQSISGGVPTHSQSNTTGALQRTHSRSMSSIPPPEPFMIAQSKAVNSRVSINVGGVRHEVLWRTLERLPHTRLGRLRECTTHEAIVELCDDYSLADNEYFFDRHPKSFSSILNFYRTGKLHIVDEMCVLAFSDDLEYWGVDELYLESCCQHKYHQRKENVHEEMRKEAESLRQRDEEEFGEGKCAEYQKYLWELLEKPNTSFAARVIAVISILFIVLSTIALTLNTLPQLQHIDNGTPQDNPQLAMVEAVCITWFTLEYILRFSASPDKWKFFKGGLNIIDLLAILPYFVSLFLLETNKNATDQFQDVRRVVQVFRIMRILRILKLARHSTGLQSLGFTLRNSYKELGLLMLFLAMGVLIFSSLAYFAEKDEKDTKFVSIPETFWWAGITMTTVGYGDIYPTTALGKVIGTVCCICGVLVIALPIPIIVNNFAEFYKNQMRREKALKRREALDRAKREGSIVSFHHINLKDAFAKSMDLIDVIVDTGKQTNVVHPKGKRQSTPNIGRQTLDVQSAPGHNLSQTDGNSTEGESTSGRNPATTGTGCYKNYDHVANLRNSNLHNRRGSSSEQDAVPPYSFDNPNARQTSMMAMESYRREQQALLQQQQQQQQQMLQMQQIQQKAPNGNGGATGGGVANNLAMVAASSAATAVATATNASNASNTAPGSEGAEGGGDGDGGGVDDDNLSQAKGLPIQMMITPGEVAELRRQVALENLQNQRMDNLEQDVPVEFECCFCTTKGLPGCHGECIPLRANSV
The experiment is described as follows: two-microelectrode voltage clamp of native IKS in larval muscle. It counts as cell-based.

Turning to `NS(=O)(=O)c1ccc(-c2c(-c3ccccc3)noc2C(F)F)cc1` [SC-791], the IC50 – broadly, the midpoint of a concentration-inhibition curve – stood at 21 µM.
